This assay relates to Lewis lung carcinoma i.m., BDF1 mice, T/C %. Briefly: NCI In Vivo Anticancer Drug Screen. Data for tumor model Lewis Lung Carcinoma (intramuscular) in B6D2F1 (BDF1) mice. A digest of the protocol: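 Tumour-bearing mice were dosed with compound, and either their survival or their tumour size was measured. Results were expressed relative to vehicle-treated controls as T/C.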

Here are results for 11 compounds from PubChem BioAssay AID272 (DTP/NCI, 2004).

Values joined by “and” are separate entries in the source; they are usually repeats but may differ in a detail not shown here. Identical values can stand only once. Inconclusive results are not listed. Residues, ends and D or L forms follow the SMILES beside them. *: point of attachment. Trt = c1ccc(C(c2ccccc2)(c2ccccc2)*)cc1; Bn = c1ccc(C*)cc1

For `Cc1c(N)nc(C(CC(N)=O)NCC(N)C(N)=O)nc1C(=O)NC(C(=O)NC(C)C(O)C(C)C(=O)NC(C(=O)NCCc1nc(-c2nc(C(=O)NCCCNCCCCN)cs2)cs1)C(C)O)C(OC1OC(CO)C(O)C(O)C1OC1OC(CO)C(O)C(OC(N)=O)C1O)c1cnc[nH]1` (configuration not stated), the T/C by setting is: (endpoint: median survival time, dose: 3.9 mg/kg/injection, schedule: Q01DX011 (ip), vehicle: saline, higher = longer survival) 120 % of control; (endpoint: median survival time, dose: 10.8 mg/kg/injection, schedule: Q01DX011 (ip), vehicle: saline, higher = longer survival) 150 % of control; (endpoint: median survival time, dose: 18.0 mg/kg/injection, schedule: Q01DX011 (ip), vehicle: saline, higher = longer survival) 152 % of control.

For the compound `CC1=Nc2ccccc2/C1=C\c1c(C)[nH]c2ccccc12`, the T/C (endpoint: mean tumor weight (est.), dose: 25.0 mg/kg/injection, schedule: Q01DX011 (ip), vehicle: saline with Tween-80, higher = larger tumour) was 52 % of control; the T/C (endpoint: mean tumor weight (est.), dose: 50.0 mg/kg/injection, schedule: Q01DX011 (ip), vehicle: saline with Tween-80, higher = larger tumour) was 68 % of control; the T/C (endpoint: mean tumor weight (est.), dose: 100.0 mg/kg/injection, schedule: Q01DX011 (ip), vehicle: saline with Tween-80, higher = larger tumour) is 29 % of control; the T/C (endpoint: median survival time, dose: 25.0 mg/kg/injection, schedule: Q01DX011 (ip), vehicle: saline with Tween-80, higher = longer survival) is 104 % of control; the T/C (endpoint: median survival time, dose: 50.0 mg/kg/injection, schedule: Q01DX011 (ip), vehicle: saline with Tween-80, higher = longer survival) was 93 % of control; the T/C (endpoint: median survival time, dose: 100.0 mg/kg/injection, schedule: Q01DX011 (ip), vehicle: saline with Tween-80, higher = longer survival) is 100 % of control.

Regarding `COc1cc([C@@H]2c3cc4c(cc3C[C@H]3COC(=O)[C@@H]32)OCO4)cc(OC)c1OC`, the T/C was 68 % of control (endpoint: mean tumor weight (est.), dose: 5.0 mg/kg/injection, schedule: Q01DX011 (ip), vehicle: saline, higher = larger tumour); 54 % of control (endpoint: mean tumor weight (est.), dose: 10.0 mg/kg/injection, schedule: Q01DX011 (ip), vehicle: saline, higher = larger tumour); 100 % of control (endpoint: mean tumor weight, dose: 6.25 mg/kg/injection, schedule: Q01DX011 (ip), vehicle: saline, higher = larger tumour); 70 % of control (endpoint: mean tumor weight, dose: 12.5 mg/kg/injection, schedule: Q01DX011 (ip), vehicle: saline, higher = larger tumour); 100 % of control (endpoint: median survival time, dose: 6.25 mg/kg/injection, schedule: Q01DX011 (ip), vehicle: saline, higher = longer survival); 87 % of control (endpoint: median survival time, dose: 12.5 mg/kg/injection, schedule: Q01DX011 (ip), vehicle: saline, higher = longer survival).

In the case of `COc1ccc([I+]c2ccc(OC)cc2)cc1`, the T/C runs as follows: (endpoint: median survival time, dose: 0.78 mg/kg/injection, schedule: Q01DX011 (ip), vehicle: saline, higher = longer survival) 110 % of control; (endpoint: median survival time, dose: 1.56 mg/kg/injection, schedule: Q01DX011 (ip), vehicle: saline, higher = longer survival) 106 % of control; (endpoint: median survival time, dose: 3.12 mg/kg/injection, schedule: Q01DX011 (ip), vehicle: saline, higher = longer survival) 98 % of control.

As for `CCN(CCO)CCNc1ccc(C)c2sc3ccccc3c(=O)c12`, the T/C is 69 % of control (endpoint: mean tumor weight (est.), dose: 21.0 mg/kg/injection, schedule: Q01DX011 (ip), vehicle: saline, higher = larger tumour); 44 % of control (endpoint: mean tumor weight (est.), dose: 42.0 mg/kg/injection, schedule: Q01DX011 (ip), vehicle: saline, higher = larger tumour); 104 % of control (endpoint: median survival time, dose: 21.0 mg/kg/injection, schedule: Q01DX011 (ip), vehicle: saline, higher = longer survival); 110 % of control (endpoint: median survival time, dose: 42.0 mg/kg/injection, schedule: Q01DX011 (ip), vehicle: saline, higher = longer survival).

For the compound `ClC1(c2ccccc2)c2ccc(Br)cc2-c2cc(Br)ccc21`, the T/C by setting is: (endpoint: mean tumor weight (est.), dose: 100.0 mg/kg/injection, schedule: Q01DX011 (ip), vehicle: saline, higher = larger tumour) 53 % of control; (endpoint: mean tumor weight (est.), dose: 200.0 mg/kg/injection, schedule: Q01DX011 (ip), vehicle: saline, higher = larger tumour) 40 % of control; (endpoint: median survival time, dose: 100.0 mg/kg/injection, schedule: Q01DX011 (ip), vehicle: saline, higher = longer survival) 88 % of control; (endpoint: median survival time, dose: 200.0 mg/kg/injection, schedule: Q01DX011 (ip), vehicle: saline, higher = longer survival) 88 % of control.

As for `CCCCCCC(=O)O[C@H]1CC[C@H]2[C@@H]3CCC4=CC(=O)CC[C@]4(C)[C@H]3CC[C@]12C`, the T/C runs as follows: (endpoint: median survival time, dose: 20.0 mg/kg/injection, schedule: Q01DX009 (ip), vehicle: Klucel (hydroxypropylcellulose) (HPC), higher = longer survival) 94 % of control; (endpoint: median survival time, dose: 40.0 mg/kg/injection, schedule: Q01DX009 (ip), vehicle: Klucel (hydroxypropylcellulose) (HPC), higher = longer survival) 90 % of control; (endpoint: median survival time, dose: 80.0 mg/kg/injection, schedule: Q01DX009 (ip), vehicle: Klucel (hydroxypropylcellulose) (HPC), higher = longer survival) 91 % of control; (endpoint: median survival time, dose: 160.0 mg/kg/injection, schedule: Q01DX009 (ip), vehicle: Klucel (hydroxypropylcellulose) (HPC), higher = longer survival) 110 % of control.

As for `CC[C@]1(O)C[C@H]2CN(CCc3c([nH]c4ccccc34)[C@@](C(=O)OC)(c3cc4c(cc3OC)N(C=O)[C@H]3[C@@](O)(C(=O)OC)[C@H](OC(C)=O)[C@]5(CC)C=CCN6CC[C@]43[C@@H]65)C2)C1`, the T/C (endpoint: mean tumor weight (est.), dose: 0.05 mg/kg/injection, schedule: Q01DX009 (ip), vehicle: water, higher = larger tumour) is 57 % of control; the T/C (endpoint: mean tumor weight (est.), dose: 0.08 mg/kg/injection, schedule: Q01DX009 (ip), vehicle: water, higher = larger tumour) was 99 % of control; the T/C (endpoint: mean tumor weight (est.), dose: 0.14 mg/kg/injection, schedule: Q01DX009 (ip), vehicle: water, higher = larger tumour) was 69 % of control; the T/C (endpoint: mean tumor weight (est.), dose: 0.23 mg/kg/injection, schedule: Q01DX009 (ip), vehicle: water, higher = larger tumour) is 55 % of control; the T/C (endpoint: mean tumor weight, dose: 0.12 mg/kg/injection, schedule: Q01DX011 (ip), vehicle: water, higher = larger tumour) is 116 % of control; the T/C (endpoint: mean tumor weight, dose: 0.14 mg/kg/injection, schedule: Q01DX009 (ip), vehicle: water, higher = larger tumour) was 46 % of control. Besides, the T/C reads like this: (endpoint: mean tumor weight, dose: 0.23 mg/kg/injection, schedule: Q01DX009 (ip), vehicle: water, higher = larger tumour) 49 % of control; (endpoint: mean tumor weight, dose: 0.25 mg/kg/injection, schedule: Q01DX011 (ip), vehicle: water, higher = larger tumour) 105 % of control; (endpoint: median survival time, dose: 0.05 mg/kg/injection, schedule: Q01DX004 (ip), vehicle: water, higher = longer survival) 107 % of control; (endpoint: median survival time, dose: 0.05 mg/kg/injection, schedule: Q09DX009 (ip), vehicle: water, higher = longer survival) 92 % of control; (endpoint: median survival time, dose: 0.06 mg/kg/injection, schedule: Q01DX011 (ip), vehicle: water, higher = longer survival) 102 % of control and 104 % of control; (endpoint: median survival time, dose: 0.08 mg/kg/injection, schedule: Q01DX004 (ip), vehicle: water, higher = longer survival) 110 % of control. The T/C runs as follows: (endpoint: median survival time, dose: 0.08 mg/kg/injection, schedule: Q09DX009 (ip), vehicle: water, higher = longer survival) 113 % of control; (endpoint: median survival time, dose: 0.12 mg/kg/injection, schedule: Q01DX011 (ip), vehicle: water, higher = longer survival) 92 % of control and 123 % of control; (endpoint: median survival time, dose: 0.14 mg/kg/injection, schedule: Q01DX004 (ip), vehicle: water, higher = longer survival) 98 % of control; (endpoint: median survival time, dose: 0.14 mg/kg/injection, schedule: Q01DX009 (ip), vehicle: none, higher = longer survival) 158 % of control; (endpoint: median survival time, dose: 0.23 mg/kg/injection, schedule: Q01DX004 (ip), vehicle: water, higher = longer survival) 81 % of control; (endpoint: median survival time, dose: 0.23 mg/kg/injection, schedule: Q01DX009 (ip), vehicle: none, higher = longer survival) 121 % of control. The T/C was 123 % of control (endpoint: median survival time, dose: 0.23 mg/kg/injection, schedule: Q01DX009 (ip), vehicle: water, higher = longer survival); 105 % of control (endpoint: median survival time, dose: 0.25 mg/kg/injection, schedule: Q01DX011 (ip), vehicle: water, higher = longer survival); 56 % of control (endpoint: median survival time, dose: 0.39 mg/kg/injection, schedule: Q01DX004 (ip), vehicle: water, higher = longer survival); 50 % of control (endpoint: median survival time, dose: 0.39 mg/kg/injection, schedule: Q01DX009 (ip), vehicle: none, higher = longer survival); 58 % of control (endpoint: median survival time, dose: 0.39 mg/kg/injection, schedule: Q09DX009 (ip), vehicle: water, higher = longer survival); 36 % of control (endpoint: median survival time, dose: 0.65 mg/kg/injection, schedule: Q01DX009 (ip), vehicle: none, higher = longer survival).

As to `COC(=O)C(CSC(c1ccccc1)(c1ccccc1)c1ccccc1)NC(=O)C(CSCc1ccccc1)NC(C)=O` (configuration not stated) (Ac-Cys(Bn)-Cys(Trt)-OMe; configuration not given here), the T/C by setting is: (endpoint: median survival time, dose: 8.0 mg/kg/injection, schedule: Q01DX009 (ip), vehicle: Klucel (hydroxypropylcellulose) (HPC), higher = longer survival) 165 % of control; (endpoint: median survival time, dose: 32.0 mg/kg/injection, schedule: Q01DX009 (ip), vehicle: Klucel (hydroxypropylcellulose) (HPC), higher = longer survival) 121 % of control; (endpoint: median survival time, dose: 64.0 mg/kg/injection, schedule: Q01DX009 (ip), vehicle: Klucel (hydroxypropylcellulose) (HPC), higher = longer survival) 121 % of control.

As for `C[C@@H]1O[C@@H](O[C@H]2CC[C@]3(C=O)[C@H]4CC[C@]5(C)[C@@H](c6ccc(=O)oc6)CC[C@]5(O)[C@@H]4CC[C@]3(O)C2)[C@H](O)[C@H](O)[C@H]1O[C@@H]1O[C@H](CO)[C@@H](O)[C@H](O)[C@H]1O`, the T/C runs as follows: (endpoint: mean tumor weight (est.), dose: 0.63 mg/kg/injection, schedule: Q01DX011 (ip), vehicle: saline, higher = larger tumour) 80 % of control; (endpoint: mean tumor weight (est.), dose: 1.25 mg/kg/injection, schedule: Q01DX011 (ip), vehicle: saline, higher = larger tumour) 89 % of control; (endpoint: median survival time, dose: 0.63 mg/kg/injection, schedule: Q01DX011 (ip), vehicle: saline, higher = longer survival) 108 % of control; (endpoint: median survival time, dose: 1.25 mg/kg/injection, schedule: Q01DX011 (ip), vehicle: saline, higher = longer survival) 98 % of control.

For the compound `O=C(Nc1ccc(C2=NCCN2)cc1)c1ccc(C(=O)Nc2ccc(C3=NCCN3)cc2)c(Cl)c1`, the T/C (endpoint: median survival time, dose: 4.0 mg/kg/injection, schedule: Q01DX011 (ip), vehicle: water, higher = longer survival) was 90 % of control.
